Where “and” joins values, the source holds several entries; their conditions need not be identical. Equal entries are not always repeated.
SMILES | melting point
O=C(O)CCc1c(F)c(F)nc(F)c1F [2,3,5,6-tetrafluoropyridine-4-propionic acid] | 152 °C
O=C(O)c1cc(I)cc(I)c1I [2,3,5-triiodobenzoic acid] | 221 °C
O=C(O)c1cc(F)nc(F)c1F [2,3,6-trifluoropyridine-4-carboxylic acid] | 120 °C
c1ccc2c(c1)Cc1cc3ccccc3cc1-2 [2,3-Benzofluorene Benzo[b]fluorene] | 210 °C
CC(C)C(C)C [2,3-Dimethylbutane] | -128 °C
O=C(O)C(S)C(S)C(=O)O (centres undefined) [2,3-Disulfanylsuccinic acid] | 197 °C
c1ccc2c(c1)Cc1cc3ccccc3cc1-2 [2,3-benzofluorene] | 210 °C
Cc1cccc(N)c1N [2,3-diaminotoluene] | 58 °C
O=S(=O)(Nc1cccc(Cl)c1Cl)c1ccccc1 [2,3-dichloro-1-phenylsulfonamidobenzene] | 114 °C
NC(=O)c1cccc(Cl)c1Cl [2,3-dichlorobenzamide] | 167 °C
O=[N+]([O-])c1cccc(Cl)c1Cl [2,3-dichloronitrobenzene] | 62 °C
Oc1cccc(Cl)c1Cl [2,3-dichlorophenol] | 59 °C
COc1cccc(/C=C/[N+](=O)[O-])c1OC [2,3-dimethoxy-beta-nitrostyrene] | 81 °C
COc1cccc(C=O)c1OC [2,3-dimethoxybenzaldehyde] | 52 °C
Cc1c(C)n(C#N)c2ccccc12 [2,3-dimethyl-1H-indole-1-carbonitrile] | 97 °C
Cc1c(C)n(C(N)=O)c2ccccc12 [2,3-dimethyl-1H-indole-1-carboxamide] | 188 °C
COc1cccc(C)c1C [2,3-dimethylanisole] | 29 °C
Cc1cccc(B(O)O)c1C [2,3-dimethylbenzeneboronic acid] | 175 °C
CC(C)C(C)C [2,3-dimethylbutane] | -129 °C
Cc1c(C)c(C#N)c2ccccc2c1C#N [2,3-dimethylnaphthalene-1,4-dicarbonitrile] | 263 °C

SMILES | melting point
Cc1cccc(O)c1C [2,3-dimethylphenol] [listing 1 of 2 here] | 75 °C and 72.5 °C
Cc1cccc(O)c1C [2,3-dimethylphenol] [listing 2 of 2 here] | 72 °C
Cc1nccnc1C [2,3-dimethylpyrazine] | -12 °C
CC1(C)O[C@@H](CO)[C@H](CO)O1 [2,3-o-isopropylidene-l-threitol] | 47 °C
O=C(c1ccc(F)cc1)c1ccccc1F [2,4'-difluorobenzophenone] | 23 °C
C=C(C)CC(C)(C)C [2,4,4-Trimethylpent-1-ene] | -94 °C
C=C(C)CC(C)(C)C [2,4,4-trimethyl-1-pentene] | -93 °C
N#Cc1c(F)c(F)c(F)c(C#N)c1F [2,4,5,6-Tetrafluoroisophthalonitrile] | 79 °C
Cc1cc(Cl)c(Cl)cc1Cl [2,4,5-Trichlorotoluene] | 82.4 °C
Oc1cc(Cl)c(Cl)cc1Cl [2,4,5-trichlorophenol] | 69 °C and 67 °C and 68 °C
COc1cc(OC)c(OC)cc1C=O [2,4,5-trimethoxybenzaldehyde] | 114 °C
Clc1nc(Cl)nc(Cl)n1 [2,4,6-Trichloro-1,3,5-triazine] | 146 °C
Oc1c(Br)cc(Br)cc1Br [2,4,6-tribromophenol] | 89 °C
OB(O)c1c(F)cc(F)cc1F [2,4,6-trifluorobenzeneboronic acid] | 235 °C
Cc1cc(C)c(B(O)O)c(C)c1 [2,4,6-trimethylbenzeneboronic acid] | 124 °C
Cc1cc(C)c(N=C=O)c(C)c1 [2,4,6-trimethylphenyl isocyanate] | 45 °C
Oc1ccc(Cl)cc1Cl [2,4-Dichlorophenol] | 42.5 °C
O=Cc1ccc(O)cc1O [2,4-Dihydroxybenzaldehyde] | 136 °C
O=C(O)c1ccc(O)cc1O [2,4-Dihydroxybenzoic Acid] | 226 °C

Reference: the Bradley open melting point set (2014)
